pKd: −log10 of the molar value. “Also recorded” adds a separate entry of the source.
Tests used:
patients with CHF = settings: cited from earlier work
[1] = cited from earlier work
[2] = acute administration; cited from earlier work
tracheas from the mice = settings: asthmatic mice chronically treated; WO 02/29534; cited from earlier work
β2-adrenergic receptor [3] = molecular target: β2-adrenergic receptor (Mus musculus, UniProt P18762); test: β-adrenergic receptor density in lung membranes of treated asthmatic mice by ICYP radioligand binding; format: in vivo; settings: for Bmax (β-adrenergic receptor density): 15 Minutes drug treatment
β2-adrenergic receptor (Mus musculus, UniProt P18762), sequence (P18762 whole entry): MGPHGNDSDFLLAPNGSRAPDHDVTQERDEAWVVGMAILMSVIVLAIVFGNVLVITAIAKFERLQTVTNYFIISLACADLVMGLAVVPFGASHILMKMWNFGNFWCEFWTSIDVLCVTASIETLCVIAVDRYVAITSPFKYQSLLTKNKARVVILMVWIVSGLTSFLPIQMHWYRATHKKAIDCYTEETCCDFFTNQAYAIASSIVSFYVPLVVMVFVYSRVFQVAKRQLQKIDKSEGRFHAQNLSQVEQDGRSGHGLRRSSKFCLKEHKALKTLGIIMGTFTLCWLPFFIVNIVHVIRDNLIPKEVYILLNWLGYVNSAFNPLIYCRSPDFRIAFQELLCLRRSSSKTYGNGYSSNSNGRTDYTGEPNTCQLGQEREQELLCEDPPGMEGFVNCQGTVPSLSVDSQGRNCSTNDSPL
Method: (§1) β2-adrenergic receptor numbers were measured in asthmatic mice as follows. […] Mice were sacrificed and lung membranes were isolated as follows. Frozen lung tissue was homogenized in an ice-cold buffer containing 0.32 M sucrose and 25 mM Tris (pH 7.4) using a polytron (Pro 200, Pro Scientific, Inc.). The homogenate was centrifuged at 1000×g for 10 min at 4° C. The resulting supernatant was centrifuged at 40,000×g for 20 min at 4° C. The pellet was suspended in an ice-cold 25 mM Tris-HCl buffer (pH 7.4) and centrifuged at 40,000×g for 20 min at 4° C. The final pellet was suspended in 200 μL of 25 mM Tris-HCl (pH 7.4); membrane protein concentration was determined by BCA protein assay kit. […] The incubation was done at 37° C. for 2 h and terminated by rapid vacuum filtration through glass fiber filters. The filters were washed three times with 250 μL of cold wash buffer (25 mM Tris-HCl, pH 7.4) and the radioactivity determined in a counter. […] Receptor densities are expressed as femtomoles of sites per milligram of protein. Bmax is determined by nonlinear regression of the saturation binding curves.

β2-adrenergic receptor [4] = test: as above; format: in vivo; settings: 2 days of administration
Method: as §1

asthmatic mice [5] = test: Airway resistance (Raw) response to methacholine provocation in murine model of asthma (forced oscillation); format: in vivo, Balb/cJ mice
Method: Balb/cJ mice aged 6 weeks (Jackson Animal Laboratory, Bar Harbor, Me.) were housed under specific pathogen-free conditions and fed a chicken ovalbumin-free diet. The Animal Research Ethics Boards of both the University of Houston and the Baylor College of Medicine approved all experiments reported here. […] Mice were sensitized with subcutaneous injection of 25 μg of ovalbumin adsorbed to aluminum hydroxide on protocol days 2, 9, and 16. Subsequently, mice were given 50 μL of saline solution containing 25 μg of ovalbumin intranasally, on a daily basis, from protocol days 23 through 27. A group of ovalbumin-sensitized saline-challenged mice serves as controls for systemic sensitization and respiratory challenges with ovalbumin. Prior to intranasal administrations, mice were sedated with halothane vapor.
To examine the effects of duration of β-adrenergic ligand therapy on the phenotype of the murine model of asthma, the experimental drugs were administered either acutely or chronically to different groups of asthmatic mice.
Asthmatic mice on acute therapy were given a single intravenous bolus infusion of either β-adrenergic drug or normal saline on protocol day 28, 15 minutes before airway responsiveness to methacholine was determined. […] Asthmatic mice on chronic therapy were treated with the β-adrenergic drug during protocol days 1 to 28. […] These concentrations were chosen based on those producing therapeutic effects in mice in previously published studies. The non-asthmatic mice were fed normal chow.
On protocol day 28, mice were anesthetized, tracheotomized, and connected to a computer-controlled small animal ventilator (Flexivent, Scientific Respiratory Equipment, Inc., Montreal, Canada). Airway resistance (Raw) was measured using the forced oscillation technique. The cellular composition of bronchoalveolar lavage fluid (BALF) was also determined.
To induce airway constriction, a solution containing 150 μg/mL of acetyl-α-methylcholine chloride (methacholine) (Sigma Chemical, St. Louis, Mo.) was infused intravenously at constant rates using a syringe infusion pump (Raze Scientific Instruments, Stanford, Conn.). […] Each methacholine dose was administered for 3 to 5 minutes, during which data were sampled at 1-minute intervals and then averaged.
The complex input impedance of the respiratory system was computed and the value of the real part of respiratory system impedance at 19.75 Hz was taken to reflect the magnitude of airway resistance (Raw). To examine the degree of airway responsiveness of each animal, the values for Raw as a function of methacholine doses were plotted. The largest value for Raw achieved in response to methacholine stimulation was referred to as Rawpeak. For mice that achieved a plateau in the methacholine dose-Raw response curve, the ED50 was calculated by linear interpolation using the GraphPad Prism4 (GraphPad Software, Inc.). […] The Bonferroni test was used to examine the statistical differences between experimental groups. The effects of acute drug treatments on baseline respiratory system mechanics were assessed using a two-tailed paired t-test. A value of P<0.05 was considered significant.
For these experiments, salbutamol was used for chronic administration at 0.5 mg/kg/day with a minipump and for acute administration at 0.15 mg/kg by i.v. bolus 15 minutes prior to challenge. Alprenolol was used at a high dose of 7200 ppm in chow or at a low dose of 720 ppm in chow. Carvedilol was used at a high dose of 2400 ppm in chow or at a low dose of 720 ppm in chow.

[6] = large trial; cited from earlier work
asthmatic mice [7] = test: Airway resistance (Raw) response to methacholine provocation in murine model of asthma (forced oscillation); format: in vivo, Balb/cJ mice; settings: 7 days, metoprolol 20 mg/kg 3× daily subcutaneous, timolol 20 mg/kg in chow
asthmatic mice [8] = test: Combination therapy carvedilol and salbutamol on airway hyperresponsiveness; format: in vivo, Balb/cJ mice; settings: 28 days carvedilol 2400 ppm in chow, alone or with salbutamol chronic (0.5 mg/kg/day) or acute ([…]); highest dose of methacholine
Method: Mice (Balb/cJ) aged 6 weeks were housed under specific pathogen-free conditions and fed a chicken ovalbumin-free diet. Mice were systemically sensitized with ovalbumin adsorbed to aluminum hydroxide. Mice were treated as follows: CAR/SAL 28D=for 28 days mice (n=6-12) were administered carvedilol (2400 ppm in animal chow) and salbutamol (subcutaneous delivery of 0.5 mg/kg/day in an Alzet #2400 osmotic minipump); NTX S/C=mice (n=6-12) no drug treatment for 28 days; CTRL=mice (n=6-12) no drug treatment for 28 days, not subsequently challenged; CARHD 28D=for 28 days mice (n=6-12) were administered carvedilol only (2400 ppm in animal chow); CARHD 28D SAL AC=for 28 days mice (n=6-12) were administered carvedilol (2400 ppm in animal chow) and 15 minutes prior to measuring airway hyperresponsiveness, salbutamol was administered at a dose of […].
To measure airway hyperresponsiveness after 28 days, all mice except the CTRL (control) mice were challenged with ovalbumin and then all mice were anesthetized, tracheotomized, and connected to a Flexivent small animal ventilator to measure airway resistance (Raw) by the forced oscillation technique. To induce airway constriction, a solution containing 150 μg/mL of methacholine was infused using a syringe infusion pump. The methacholine infusion was started at 0.008 mL/min and its rate was doubled stepwise up to a maximum […]. […]

β-adrenergic receptor = settings: U.S. Pat. No. 5,116,867; cited from earlier work
[9] = system: sensitized and allergen-challenged mice; test: Acute nadolol with aminophylline, methacholine-induced bronchoconstriction; format: in vivo; settings: aminophylline 100 mg/kg i.p. during methacholine; untreated and nadolol-treated mice
Method: Mice were sensitized to the allergen ovalbumin as described in Example 1. […] At time point 1 (time=−10 min) baseline airway resistance of the mice was determined. At time point 2 (time=−5 min) methacholine was infused into mice to reach their EC70.

[10] = lung membranes of asthmatic mice, mean±SEM
[11] = 28 Days drug treatment, lung membranes of asthmatic mice, mean±SEM
[12] = asthmatic mice, chronic: 28 days (chow; salbutamol by osmotic minipump)

## CC(C)(Cc1c[nH]c2ccccc12)NCC(O)COc1ccccc1C#N (stereo not shown) [Bucindolol, bucindolol]
Patients with CHF
  clinical benefit in congestive heart failure: failed to demonstrate any benefit over placebo

## CCCC1O[C@@H]2C[C@H]3[C@@H]4CCC5=CC(=O)C=C[C@]5(C)[C@H]4[C@@H](O)C[C@]3(C)[C@]2(C(=O)CO)O1 (stereo partly shown) [budesonide]
[1]; 6 children with asthma versus 11 healthy adults
  plasma clearance of the 2 enantiomers per kilogram of bodyweight, children versus adults: about 50%

## CC(C)NC[C@H](O)COc1cccc2ccccc12 [L-form, propranolol]
[2]
  specific lung resistance: increased specific lung resistance

## C=CCc1ccccc1OCC(O)CNC(C)C (stereo not shown) [Alprenolol, alprenolol]
Tracheas from the mice
  effectiveness on contraction of excised tracheas in response to methacholine (rank): most effective compound
β2-adrenergic receptor [3]; [10]
  Bmax (β-adrenergic receptor density): 299.5 ± 12.19 femtomoles of sites per milligram of protein
β2-adrenergic receptor [3]; [11]
  βmax (β-adrenergic receptor density): 179.2 ± 53.05 femtomoles of sites per milligram of protein
β2-adrenergic receptor [4]
  Increased β2AR density: no
Asthmatic mice [5]; [12]
  airway responsiveness to methacholine provocation (airway resistance, Raw): does not reduce airway hyperresponsiveness compared to untreated asthmatic mice; also recorded: provides no benefit upon chronic administration

## OCc1cc(C(O)CNCCCCCCOCCCCc2ccccc2)ccc1O (stereo not shown) [salmeterol]
[6]
  death rates: stopped due to increased death rates

## CC(C)(C)NCC(O)c1ccc(O)c(CO)c1 (stereo not shown) [Salbutamol, salbutamol]
[1]; 10 patients with cystic fibrosis versus healthy adults
  bioavailability of inhaled drug: greater than that in healthy adults
β2-adrenergic receptor [3]; [10]
  Bmax (β-adrenergic receptor density): 256.5 ± 29.24 femtomoles of sites per milligram of protein
β2-adrenergic receptor [3]; [11]
  βmax (β-adrenergic receptor density): 97.0 ± 23.02 femtomoles of sites per milligram of protein
β2-adrenergic receptor [3]; 28 Days drug treatment, lung membranes of asthmatic mice, mean±SEM, read-out: KD (apparent, of radioligand ICYP)
  pKd: 9.65
β2-adrenergic receptor [4]
  Increased β2AR density: no
Asthmatic mice [5]; asthmatic mice, acute: single intravenous bolus 15 minutes before methacholine
  airway responsiveness to methacholine provocation (airway resistance, Raw): reduced the level of airway responsiveness to methacholine provocation and the level of airway resistance
Asthmatic mice [5]; [12]
  airway responsiveness to methacholine provocation (airway resistance, Raw): no protection was observed

## CC(C)(C)NC[C@H](O)COc1nsnc1N1CCOCC1 [timolol]
Asthmatic mice [7]
  airway hyperresponsiveness (Raw) to methacholine: effective in reducing airway hyperresponsiveness in asthmatic mice

## Cc1ccc(OCC(O)C(C)NC(C)C)c2c1CCC2 (stereo not shown) [ICI-118,551]
Tracheas from the mice
  effectiveness on contraction of excised tracheas in response to methacholine (rank): then ICI-118,551

## CC(C)(C)NCC(O)c1cc(O)cc(O)c1 (stereo not shown) [terbutaline]
[1]; healthy smokers versus healthy nonsmokers
  rate of absorption through the lung: more rapidly in healthy smokers than in healthy nonsmokers

## COc1ccccc1OCCNCC(O)COc1cccc2[nH]c3ccccc3c12 (stereo not shown) [Carvedilol, carvedilol]
β2-adrenergic receptor [3]; [10]
  Bmax (β-adrenergic receptor density): 86.3 ± 19.42 femtomoles of sites per milligram of protein
β2-adrenergic receptor [3]; [11]
  βmax (β-adrenergic receptor density): 904.1 ± 43.46 femtomoles of sites per milligram of protein
β2-adrenergic receptor [3]; 28 days of administration
  Increased β2AR density: showed an increase in receptor density
β2-adrenergic receptor [3]; chronic administration, versus untreated methacholine-challenged asthmatic mice
  increase of the level of β2-adrenergic receptors over the non-treated mice: over 10 fold
β2-adrenergic receptor [4]
  Increased β2AR density: no
Asthmatic mice [5]; asthmatic mice, chronic administration
  sensitivity of the responsiveness to methacholine: shifts the sensitivity of the responsiveness to methacholine to lower concentrations
Asthmatic mice [5]; [12]
  airway responsiveness to methacholine provocation (airway resistance, Raw): does reduce airway hyperresponsiveness; also recorded: reduced the responsiveness of asthmatic mice to methacholine provocation
Asthmatic mice [5]; chronic administration, high and low dose in chow (Example 6)
  protection from airway hyperresponsiveness: providing protection from airway hyperresponsiveness
Asthmatic mice [8]
  bronchoconstriction / airway hyperresponsiveness to methacholine: higher bronchoconstriction than these treatments but less than the non-drug treated sensitized and challenged (NTX S/C) mice
Patients with CHF
  clinical benefit in congestive heart failure: significant mortality reduction

## CC(C)NC[C@@H](O)COc1cccc2ccccc12 [D-propranolol]
β-adrenergic receptor
  potency in inhibiting the β-adrenergic receptor relative to the L-form: 1/100
[2]
  antigen-induced bronchoconstriction and airway hyperresponsiveness: beneficial in inhibiting antigen-induced bronchoconstriction and reducing airway hyperresponsiveness

## COCCc1ccc(OCC(O)CNC(C)C)cc1 (stereo not shown) [metoprolol]
Asthmatic mice [7]
  airway hyperresponsiveness (Raw) to methacholine: effective in reducing airway hyperresponsiveness in asthmatic mice
Patients with CHF
  clinical benefit in congestive heart failure: significant mortality reduction

## Cn1c(=O)c2[nH]cnc2n(C)c1=O [aminophylline]
[9]
  airway resistance after aminophylline administration: significant and sustained drop in airway resistance; also recorded: can alleviate the acute effects on airway hyperresponsiveness of nadolol administration

Source: US9539221B2, “Method of treating airway diseases with β-adrenergic inverse agonists” (EGB ADVISORS, LLC, priority 2003, dated 2017)
